This is an account of results in US10945771B2, “Azabicyclo[4.1.0]heptane allosteric modulators of the M4 muscarinic acetylcholine receptor” (Merck Sharp & Dohme Corp., priority 2017, dated 2021).

This experiment deals with T1, human M4 muscarinic acetylcholine receptor (Homo sapiens, UniProt P08173).
T1 construct: expressed in transfected cells; host or cells: CHO-K1
T1 sequence (P08173 1-479): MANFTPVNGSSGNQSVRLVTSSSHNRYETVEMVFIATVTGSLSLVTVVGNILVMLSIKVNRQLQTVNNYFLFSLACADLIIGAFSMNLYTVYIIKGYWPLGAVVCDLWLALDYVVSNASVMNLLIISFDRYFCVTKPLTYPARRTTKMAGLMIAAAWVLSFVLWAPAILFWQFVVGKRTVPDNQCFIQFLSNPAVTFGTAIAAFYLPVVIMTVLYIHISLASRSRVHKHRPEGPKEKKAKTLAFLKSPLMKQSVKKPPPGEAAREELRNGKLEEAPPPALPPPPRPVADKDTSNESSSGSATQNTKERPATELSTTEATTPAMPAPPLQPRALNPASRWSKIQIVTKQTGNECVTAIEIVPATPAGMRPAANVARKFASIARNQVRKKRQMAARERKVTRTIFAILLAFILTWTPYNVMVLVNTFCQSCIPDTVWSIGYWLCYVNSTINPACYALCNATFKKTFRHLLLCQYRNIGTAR
In words: human FLIPR-based M4 PAM assay (Ca2+ dye fluorescence, CHO-K1 cells with human M4 receptor and Gαqi5). The format is cell-based. The settings on record: inflection point (IP) of dose response curve, FLIPR Tetra, acetylcholine at 20% of maximum response. As to the method: In a typical experiment the M4 muscarinic acetylcholine receptor modulating activity of the compounds of the present invention was determined in accordance with the following experimental method. CHO-K1 cells stably transfected with human M4 receptor and chimeric G-protein Gαqi5 (Coward P, et al., Analytical Biochemistry, 270:242-248 (1999)) are thawed from liquid N2 storage, resuspended in growth medium, plated in black, clear bottom 384 well plates, and incubated 16-20 hours at 37° C., 5% CO2. On the day of assay, growth medium is removed, the cells are washed 2 times with wash buffer, and cells are incubated in dye loading buffer at 37° C., 5% CO2 for ˜1 hour. Following dye loading the cell plates are placed in a FLIPR Tetra instrument and while monitoring dye fluorescence (excitation […]), 10 uL of test substance at increasing concentrations is added, and fluorescence values are recorded for 4 min. Next, 10 uL of acetylcholine is added (final concentration calculated so as to achieve 20% of the maximum acetycholine response), and the fluorescence reading is continued for 3.5 min. In some cases, a third addition of acetylcholine (final concentration calculated to achieve 70% of the maximal acetylcholine response) is performed. The resulting dose response curves are fit to a 4 parameter logistic equation and the final result is determined as the inflection point (IP) of the curve
CHO-K1 cells stably transfected with human M4 receptor and chimeric G-protein Gαqi5 are thawed from liquid N2 storage, resuspended in growth medium, plated in black, clear bottom 384 well plates, and incubated 16-20 hours at 37° C., 5% CO2.
On the day of assay, growth medium is removed, the cells are washed 2 times with wash buffer, and cells are incubated in dye loading buffer at 37° C., 5% CO2 for ˜1 h. Following dye loading the cell plates are placed in a FLIPR Tetra instrument and while monitoring dye fluorescence ([…]), 10 uL of test substance at increasing concentrations is added, and fluorescence values are recorded for 4 min. Next, 10 uL of acetylcholine is added (final concentration calculated so as to achieve 20% of the maximum acetycholine response), and the fluorescence reading is continued for 3.5 min. In some cases, a third addition of acetylcholine (final concentration calculated to achieve 70% of the maximal acetylcholine response) is performed.
Compound `Cc1c(N2CCC(OCC3(C)CC3)C3CC32)nc2c(c1C)C(=O)N1CCC(O)CC21` (single isomer, unassigned) [Example 24, 9-hydroxy-3,4-dimethyl-2-(5-((1-methylcyclopropyl)methoxy)-2-azabicyclo[4.1.0]heptan-2-yl)-8,9,10,10a-tetrahydropyrido[2,3-a]indolizin-5(7H)-one] showed an EC50 of 2440 nM.
With `Cc1c(N2CCC(OCC3(C)CC3)C3CC32)nc2c(c1C)C(=O)N1CCC(C)(O)CC21` (centres unmarked) [Example 25, 9-hydroxy-3,4,9-trimethyl-2-(5-((1-methylcyclopropyl)methoxy)-2-azabicyclo[4.1.0]heptan-2-yl)-8,9,10,10a-tetrahydropyrido[2,3-a]indolizin-5(7H)-one] the figure was 195 nM; with `Cc1c(N2CCC(OCC3(C)CC3)C3CC32)nc2c(c1C)C(=O)N1CCOCC21` (centres unmarked) [Example 26, 3,4-dimethyl-2-(5-((1-methylcyclopropyl)methoxy)-2-azabicyclo[4.1.0]heptan-2-yl)-7,8,10,10a-tetrahydro-5H-pyrido[2′,3′:3,4]pyrrolo[2,1-c][1,4]oxazin-5-one], 153 nM; with `Cc1c(N2CCC(Oc3ccc4c(c3)COC4)C3CC32)nc2c(c1C)C(=O)NC2` (centres unmarked) [Example 27, 2-(5-((1,3-dihydroisobenzofuran-5-yl)oxy)-2-azabicyclo[4.1.0]heptan-2-yl)-3,4-dimethyl-6,7-dihydro-5H-pyrrolo[3,4-b]pyridin-5-one], 166 nM.
To `Cc1cc2c(nc1N1CCC(Oc3ccc4c(c3)COC4)C3CC31)CNC2=O` (centres unmarked) [Example 28, 2-(5-((1,3-dihydroisobenzofuran-5-yl)oxy)-2-azabicyclo[4.1.0]heptan-2-yl)-3-methyl-6,7-dihydro-5H-pyrrolo[3,4-b]pyridin-5-one] belongs 76 nM.
With `Cc1cc2c(nc1N1CCC(Oc3ccc4c(c3)COC4)C3CC31)CNC2=O` (centres unmarked) [Example 29, 2-(5-((1,3-dihydroisobenzofuran-5-yl)oxy)-2-azabicyclo[4.1.0]heptan-2-yl)-3-methyl-6,7-dihydro-5H-pyrrolo[3,4-b]pyridin-5-one] the figure was 43 nM; with `Cc1cc2c(nc1N1CCC(Oc3ccc4c(c3)COC4)C3CC31)CNC2=O` (centres unmarked) [Example 30, 2-(5-((1,3-dihydroisobenzofuran-5-yl)oxy)-2-azabicyclo[4.1.0]heptan-2-yl)-3-methyl-6,7-dihydro-5H-pyrrolo[3,4-b]pyridin-5-one], 727 nM; with `Cc1cc2c(nc1N1CCC(Oc3ccc4c(c3)CCOC4)C3CC31)CNC2=O` (centres unmarked) [Example 31, 2-(5-(isochroman-6-yloxy)-2-azabicyclo[4.1.0]heptan-2-yl)-3-methyl-6,7-dihydro-5H-pyrrolo[3,4-b]pyridin-5-one], 72 nM.
On to `Cc1c(N2CCC(Oc3ccc4c(c3)COCC4)C3CC32)nc2c(c1C)C(=O)NC2` (centres unmarked) [Example 35, 2-(5-(isochroman-7-yloxy)-2-azabicyclo[4.1.0]heptan-2-yl)-3,4-dimethyl-6,7-dihydro-5H-pyrrolo[3,4-b]pyridin-5-one], for which the midpoint of the response, the EC50, lay at 281 nM.
Take `Cc1cc2c(nc1N1CCC(Oc3ccc4c(c3)COCC4)C3CC31)CNC2=O` (centres unmarked) [Example 36, 2-(5-(isochroman-7-yloxy)-2-azabicyclo[4.1.0]heptan-2-yl)-3-methyl-6,7-dihydro-5H-pyrrolo[3,4-b]pyridin-5-one]: the 50% effective concentration (EC50) was determined as 156 nM.
In turn, `Cc1c(N2CCC(Oc3ccc4c(c3)COC4)C3CC32)nc2c(c1C)C(=O)N(C)C2` (centres unmarked) [Example 37, 2-(5-((1,3-dihydroisobenzofuran-5-yl)oxy)-2-azabicyclo[4.1.0]heptan-2-yl)-3,4,6-trimethyl-6,7-dihydro-5H-pyrrolo[3,4-b]pyridin-5-one] registered an EC50 of 143 nM.

A word on the EC50: it is the concentration needed to bring the measured effect to its halfway point.
